Each structure is given as a SMILES string. Several values for one entry are separate records, joined by “and”; a condition that tells them apart may be missing. Equal entries are not always repeated. Activity calls are given as the source filed them. Some results are limits rather than exact numbers.

One series addresses T1, Cytochrome P450 1A2 (Homo sapiens, UniProt P05177).
T1 sequence (P05177 whole entry): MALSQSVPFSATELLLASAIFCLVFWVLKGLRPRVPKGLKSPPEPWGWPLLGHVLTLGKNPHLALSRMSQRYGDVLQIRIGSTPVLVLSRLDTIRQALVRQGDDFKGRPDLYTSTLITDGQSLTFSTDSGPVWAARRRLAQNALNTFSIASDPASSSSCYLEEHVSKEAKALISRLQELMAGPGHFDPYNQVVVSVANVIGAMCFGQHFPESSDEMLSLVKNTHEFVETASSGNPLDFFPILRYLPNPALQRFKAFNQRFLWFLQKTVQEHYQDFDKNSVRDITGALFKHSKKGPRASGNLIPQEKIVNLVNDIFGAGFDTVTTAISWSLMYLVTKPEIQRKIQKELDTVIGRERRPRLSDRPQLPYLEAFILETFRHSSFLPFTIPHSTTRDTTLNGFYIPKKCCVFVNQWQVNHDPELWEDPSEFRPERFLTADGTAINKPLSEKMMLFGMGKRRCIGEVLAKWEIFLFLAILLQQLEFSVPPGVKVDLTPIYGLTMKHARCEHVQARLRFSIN

The target in series [1] is T2, Corticotropin-releasing factor receptor 2/Corticotropin-releasing factor-binding protein (Homo sapiens, UniProt P24387+Q13324).
T2 sequence (Q13324 whole entry): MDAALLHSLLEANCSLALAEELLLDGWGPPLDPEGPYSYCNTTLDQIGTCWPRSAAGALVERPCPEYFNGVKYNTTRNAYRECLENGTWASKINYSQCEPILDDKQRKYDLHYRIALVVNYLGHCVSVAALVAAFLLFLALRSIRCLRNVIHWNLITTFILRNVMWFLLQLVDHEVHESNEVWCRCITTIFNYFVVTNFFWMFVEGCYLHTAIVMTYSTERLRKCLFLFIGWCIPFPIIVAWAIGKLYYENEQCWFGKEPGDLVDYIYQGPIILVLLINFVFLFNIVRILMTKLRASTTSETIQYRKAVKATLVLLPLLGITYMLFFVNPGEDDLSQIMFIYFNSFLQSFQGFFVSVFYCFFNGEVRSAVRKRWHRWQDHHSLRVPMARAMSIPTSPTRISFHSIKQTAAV
T2 sequence (P24387 whole entry): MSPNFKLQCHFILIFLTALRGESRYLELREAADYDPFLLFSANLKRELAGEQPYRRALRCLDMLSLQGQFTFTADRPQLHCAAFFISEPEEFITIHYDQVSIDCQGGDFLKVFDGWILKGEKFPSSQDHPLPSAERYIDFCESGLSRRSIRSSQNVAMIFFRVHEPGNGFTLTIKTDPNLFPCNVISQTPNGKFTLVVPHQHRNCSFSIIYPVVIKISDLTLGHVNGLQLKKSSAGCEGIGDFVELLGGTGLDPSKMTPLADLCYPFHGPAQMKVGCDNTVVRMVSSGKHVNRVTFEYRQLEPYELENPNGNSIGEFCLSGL
As to the kind of experiment: activators of CRF receptor 2 with binding protein – uHTS hits, confirmation (AID 602473). It counts as functional. The settings on record: read-out: EC50_Mean.

Another series can be described thus: cells. In kind it is functional.
The target in series [2] is T3, Zinc finger protein mex-5 (Caenorhabditis elegans, UniProt Q9XUB2).
T3 sequence (Q9XUB2 whole entry): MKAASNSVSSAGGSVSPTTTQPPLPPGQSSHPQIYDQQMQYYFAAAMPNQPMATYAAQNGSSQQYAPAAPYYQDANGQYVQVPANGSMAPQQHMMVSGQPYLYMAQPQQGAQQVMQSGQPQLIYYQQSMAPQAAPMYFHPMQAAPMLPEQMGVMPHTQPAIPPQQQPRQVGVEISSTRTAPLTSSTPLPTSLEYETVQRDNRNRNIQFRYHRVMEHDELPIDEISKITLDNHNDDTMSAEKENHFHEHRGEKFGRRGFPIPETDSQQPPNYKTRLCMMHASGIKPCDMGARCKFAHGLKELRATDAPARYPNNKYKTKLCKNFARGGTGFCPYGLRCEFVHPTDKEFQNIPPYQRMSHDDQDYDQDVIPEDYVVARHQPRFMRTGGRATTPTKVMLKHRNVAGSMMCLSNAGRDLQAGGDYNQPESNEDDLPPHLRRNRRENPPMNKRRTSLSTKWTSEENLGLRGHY
As to the kind of experiment: potency of MEX-5 RNA-binding blockers – biochemical, C. elegans, fluorescence polarization, dose response (AID 1960). In general terms: Polarisation of emitted light reports the rotation of a fluorescent probe.

Series [3] deals with T4, RNA-binding protein pos-1 (Caenorhabditis elegans, UniProt G5EF15).
T4 sequence (G5EF15 whole entry): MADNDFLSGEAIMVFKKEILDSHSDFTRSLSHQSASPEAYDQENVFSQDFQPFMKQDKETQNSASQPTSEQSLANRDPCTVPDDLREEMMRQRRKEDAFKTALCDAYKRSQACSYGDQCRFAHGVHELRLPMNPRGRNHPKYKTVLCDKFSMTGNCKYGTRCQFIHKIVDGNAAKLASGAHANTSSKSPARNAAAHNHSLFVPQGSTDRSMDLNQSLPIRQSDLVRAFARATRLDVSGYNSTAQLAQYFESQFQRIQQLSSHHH
As to the kind of experiment: disruptors of C. elegans POS-1 RNA interaction – biochemical, fluorescence polarization, dose response (AID 1964).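 Further: purified POS-1 fused to maltose binding protein made in E. coli; potency of compounds blocking POS-1 binding to fluorescent RNA.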

In series [4] the target is FAD-linked sulfhydryl oxidase ALR (Homo sapiens, UniProt P55789). As to the kind of experiment: ALR-catalysed DTT oxidation blockers – biochemical, H2O2 detection, luminescence, cherry-pick, dose response (AID 493248).
Sequence of FAD-linked sulfhydryl oxidase ALR (P55789 whole entry): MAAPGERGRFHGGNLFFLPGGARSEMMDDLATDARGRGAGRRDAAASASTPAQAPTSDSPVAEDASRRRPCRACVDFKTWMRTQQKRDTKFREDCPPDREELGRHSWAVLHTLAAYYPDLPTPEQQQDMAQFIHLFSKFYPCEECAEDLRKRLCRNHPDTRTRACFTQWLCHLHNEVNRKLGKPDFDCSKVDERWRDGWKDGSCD
Series [5] has as its target T5, Heat shock factor protein 1 (Mus musculus, UniProt P38532).
T5 sequence (P38532 whole entry): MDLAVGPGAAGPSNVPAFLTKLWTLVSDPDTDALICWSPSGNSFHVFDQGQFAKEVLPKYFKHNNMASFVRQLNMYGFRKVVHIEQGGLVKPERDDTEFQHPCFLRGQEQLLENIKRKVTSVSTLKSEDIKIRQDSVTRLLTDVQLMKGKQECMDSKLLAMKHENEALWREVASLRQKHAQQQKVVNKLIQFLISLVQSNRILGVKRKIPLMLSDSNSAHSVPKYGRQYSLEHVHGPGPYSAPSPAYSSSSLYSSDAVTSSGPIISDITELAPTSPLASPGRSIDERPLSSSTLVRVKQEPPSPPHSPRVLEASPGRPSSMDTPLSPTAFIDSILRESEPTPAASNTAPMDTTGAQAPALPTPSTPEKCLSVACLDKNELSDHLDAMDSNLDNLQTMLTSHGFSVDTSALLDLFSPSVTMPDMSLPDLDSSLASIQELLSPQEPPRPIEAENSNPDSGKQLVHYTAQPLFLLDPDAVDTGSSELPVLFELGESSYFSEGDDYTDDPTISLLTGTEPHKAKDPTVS
As to the kind of experiment: decrease of HSF1-responsive luciferase luminescence – cell-based, NIH3T3, dose retest, confirmation (AID 2382).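 Further: NIH3T3 fibroblasts with HSF1-driven luciferase reporter stressed by proteasome inhibitor MG132; luminescence from HSF1-driven luciferase expression after 8 hours of MG132 stress.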 It counts as functional.

Another series deals with Cytochrome P450 2C9 (Homo sapiens, UniProt P11712).
Sequence of Cytochrome P450 2C9 (P11712 whole entry): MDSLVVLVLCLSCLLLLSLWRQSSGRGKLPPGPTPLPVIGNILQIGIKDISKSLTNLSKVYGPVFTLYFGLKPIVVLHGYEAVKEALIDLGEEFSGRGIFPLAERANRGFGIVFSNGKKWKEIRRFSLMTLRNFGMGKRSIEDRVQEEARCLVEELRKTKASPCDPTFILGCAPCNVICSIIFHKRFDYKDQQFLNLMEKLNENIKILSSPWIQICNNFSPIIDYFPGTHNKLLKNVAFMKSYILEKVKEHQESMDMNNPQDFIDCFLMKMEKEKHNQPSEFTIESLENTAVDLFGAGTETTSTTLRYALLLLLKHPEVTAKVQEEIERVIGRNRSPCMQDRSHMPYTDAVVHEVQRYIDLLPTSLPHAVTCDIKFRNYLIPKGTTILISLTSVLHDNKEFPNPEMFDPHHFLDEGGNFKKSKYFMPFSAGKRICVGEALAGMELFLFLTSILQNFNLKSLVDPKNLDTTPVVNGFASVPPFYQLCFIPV
The target in a further series is Cytochrome P450 3A4 (Homo sapiens, UniProt P08684).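 Further: CYP3A4 tested as one member of a cytochrome P450 panel screen.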
Sequence of Cytochrome P450 3A4 (P08684 whole entry): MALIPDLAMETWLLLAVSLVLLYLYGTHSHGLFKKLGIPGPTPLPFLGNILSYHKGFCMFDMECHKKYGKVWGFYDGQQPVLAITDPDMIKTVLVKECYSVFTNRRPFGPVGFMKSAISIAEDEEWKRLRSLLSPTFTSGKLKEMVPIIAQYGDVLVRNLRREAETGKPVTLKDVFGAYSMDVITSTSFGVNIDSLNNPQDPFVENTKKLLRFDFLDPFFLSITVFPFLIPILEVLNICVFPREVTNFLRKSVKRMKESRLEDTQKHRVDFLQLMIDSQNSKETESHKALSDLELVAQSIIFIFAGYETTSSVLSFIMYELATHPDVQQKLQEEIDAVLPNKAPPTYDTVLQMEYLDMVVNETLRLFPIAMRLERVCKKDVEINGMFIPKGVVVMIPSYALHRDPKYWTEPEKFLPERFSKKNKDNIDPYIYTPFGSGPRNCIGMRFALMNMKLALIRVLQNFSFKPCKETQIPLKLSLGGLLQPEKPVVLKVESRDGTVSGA
Another series deals with Cytochrome P450 2C19 (Homo sapiens, UniProt P33261). As to the kind of experiment: Cytochrome panel assay with activity outcomes. Panel member name: p450-cyp2c19 Compounds with AC50 equal or less than 10 uM are considered active. It counts as functional.
Sequence of Cytochrome P450 2C19 (P33261 whole entry): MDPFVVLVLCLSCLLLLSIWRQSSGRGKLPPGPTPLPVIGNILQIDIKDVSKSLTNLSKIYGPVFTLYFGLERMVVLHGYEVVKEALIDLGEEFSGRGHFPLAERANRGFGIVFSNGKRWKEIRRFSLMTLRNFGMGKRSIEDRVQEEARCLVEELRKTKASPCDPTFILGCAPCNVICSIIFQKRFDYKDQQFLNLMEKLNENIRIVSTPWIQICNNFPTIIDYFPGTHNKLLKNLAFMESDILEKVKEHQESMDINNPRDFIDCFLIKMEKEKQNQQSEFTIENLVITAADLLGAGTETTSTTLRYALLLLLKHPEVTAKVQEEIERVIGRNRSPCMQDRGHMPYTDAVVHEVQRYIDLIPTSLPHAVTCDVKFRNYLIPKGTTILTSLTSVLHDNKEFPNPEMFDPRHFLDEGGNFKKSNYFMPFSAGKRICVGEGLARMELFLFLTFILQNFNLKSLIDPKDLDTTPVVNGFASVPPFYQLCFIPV
Series [6] is described as follows: viability of uninfected HEp-2 cells – cell-based, HTS, cytotoxicity control for RSV inhibitor project, dose response (AID 2410). In kind it is functional. Particulars: human respiratory syncytial virus.
Series [7] can be described thus: Luminescence Cell-Based Dose Response HTS to Identify Inhibitors of 5'UTR Stem-Loop Driven Prion Protein mRNA Translation in H4 Neuroglioblastoma Cells. [Related pubchem assays: 1827 (Project Summary), 1813 (Primary HTS)]. It counts as functional.
A short description of series [8]: alpha-synuclein stem-loop luciferase translation blockers – H4 neuroglioma cells, luminescence, confirmation (AID 1988). It counts as functional, cell-based.
Series [9] in a line: luciferase reporter signal suppression in cells – H4 neuroglioma cells, luminescence, dose response (AID 1990). In kind it is functional, cell-based. On the technique in general: Reporter assays use an easily measured gene product as a stand-in for the process of interest.
Series [10] can be described thus: non-specific 3'UTR reporter inhibition in Clone20-Shn3RL – cell-based, Renilla luciferase, cherry-picked, counter-screen for Shn3 inhibitor project, dose response (AID 624133). In kind it is functional. On the technique in general: Counterscreens check selectivity or assay interference.

For `O=C(CCN1C[C@H]2CC[C@H](CC2)C1)c1cccs1`, the AC50 (usually the midpoint of the concentration-response curve, whichever way the signal moves) at Cytochrome P450 1A2 was 5.01 µM (inconclusive).
Turning to `Cc1ccc(/C(O)=C/c2nc3ccccc3oc2=O)cc1`, the EC50 in [1] was 11.4 µM (active); in [2], > 300 µM (inconclusive); in series [3], > 300 µM (inconclusive). For the same compound, in the series “cells”, the IC50 (as a rule, the midpoint of a concentration-inhibition curve) is 4.72 µM (active).
As to `CCN(CC)CC(=O)Nc1ccc2c(c1)Nc1ccccc1CC2`, the AC50 in [4] was 0.221 µM (active).
As for `CCOc1ccc(NC(=O)COC(=O)C2(C)CC2(Cl)Cl)c([N+](=O)[O-])c1` (centres undefined), the IC50 in “cells” was 38.4 µM (active). For the same compound, the EC50 in series [5] was > 195 µM (not active).
For the compound `Cc1ccc(C(=O)NC(=S)N2CC(C)OC(C)C2)cc1[N+](=O)[O-]` (centres undefined), the AC50 at Cytochrome P450 1A2 is 15.8 µM (inconclusive); on Cytochrome P450 2C9 it was 14.1 µM (inconclusive); on Cytochrome P450 3A4, 22.4 µM (inconclusive); on Cytochrome P450 2C19 it was “inconclusive”.
For `CCn1c2ccccc2c2cnc(/N=C/N(C)C)c(C#N)c21`, in series [6], the CC50 – broadly, the concentration that lowers cell viability or growth by half – is 37 µM (active).
Take `CN1CCC(c2c[nH]c3ccc(O)cc23)CC1`: the AC50 at Cytochrome P450 1A2 is 31.6 µM (inconclusive); on Cytochrome P450 3A4, 15.8 µM (inconclusive) and 31.6 µM (inconclusive).
For the compound `O=C(O)c1ccc(Sc2nnc(-c3cccc(Br)c3)o2)c([N+](=O)[O-])c1`, the AC50 in series [4] is 0.044 µM (active).
On to `Cn1c(=O)c(-c2cccs2)nc2cnc(N3CCOCC3)nc21`, for which the AC50 at Cytochrome P450 1A2 was 5.01 µM (inconclusive).
As for `O=C(CCc1ccccc1)NC1C2CC3CC(C2)CC1C3` (centres undefined), the IC50 in “cells” is 18.6 µM (active).
On to `N#CC1CCCc2c1[nH]c1ccc([N+](=O)[O-])cc21` (centres undefined), for which the EC50 was > 120 µM (not active) in [7], 24.5 µM (active) in [8] and 11.7 µM (active) in [9]. Besides, the CC50 in series [6] is 27.8 µM (active).
With `Sc1nnc(-c2ccccn2)n1/N=C/c1ccc(Br)s1`, the AC50 in series [4] was 10.5 µM (active).
In the case of `COc1cccc(COC(=O)CCNC(=O)c2ccc(Br)cc2)c1OC`, the half-inhibitory concentration (IC50) in the series “cells” was 15.4 µM (active).
Regarding `Nc1cccc(OCc2nc(N)nc(N)c2-c2ccc(Cl)cc2)c1`, on Cytochrome P450 1A2, the AC50 was 0.158 µM (inconclusive).
Take `CC(=O)Nc1ccc(S(=O)(=O)N2CCC(c3nc4cc(C)ccc4[nH]3)CC2)cc1`: the CC50 in series [6] is 15.4 µM (active).
On to `C=CCNC(=O)/C(=C\c1ccc2c(c1)OCO2)NC(=O)c1ccc(Br)cc1`, for which the AC50 is 14.1 µM (inconclusive) at Cytochrome P450 1A2 and 5.62 µM (inconclusive) on Cytochrome P450 2C9.
As for `COc1ccc(N2CCN(C(=O)Cc3ccc(C)cc3)CC2)cc1`, the AC50 in [4] is 5.48 µM (active).
Turning to `CCC/C=C(\CCC)C(NC(=O)c1ccc(C(F)(F)F)cc1)c1ccccc1` (centres undefined), the AC50 is 25.1 µM (inconclusive) at Cytochrome P450 1A2 and 3.16 µM (inconclusive) on Cytochrome P450 2C9.
Turning to `CC(C)N1CCN(Cc2c[nH]c3ccccc23)CC1CCO` (centres undefined), the AC50 in series [10] was 28.6 µM (active).
As to `Cc1cc(C)nc(Nc2n[nH]c(-c3ccc(N)cc3)n2)n1`, the AC50 in series [4] was 0.311 µM (active).
Same read-out and setting: then `NC(=NO)c1ccccc1N1CCC(Cc2ccccc2)CC1`, with 27.4 µM (active).
On to `COc1ccc(N(C)C(=O)c2cc3c(s2)-c2ccccc2OC3)c(OC)c1`, for which, in series [6], the CC50 is 48.3 µM (active).
Still for that read-out and setting: then `Cc1cc(NS(=O)(=O)c2ccccc2)c(C)c(Cl)c1O`, with 8.98 µM (active).
For the compound `Cc1ccc(S(=O)(=O)Oc2cc(S(=O)(=O)O)cc3cc(S(=O)(=O)O)cc(N)c23)cc1`, at Cytochrome P450 1A2, the AC50 was 2 µM (inconclusive).
For the compound `CC(CN1CCN(c2ccccc2)CC1)c1ccccc1` (centres undefined), the AC50 in series [4] is 66.9 µM (active).
Take `Cc1cc(C)n(CCC(=O)N2CCCC(Nc3ccc(F)cc3)C2)n1` (centres undefined): in series [4], the AC50 was 33.3 µM (active).
Regarding `CSc1ccc(CNc2ncc(-c3cccc([N+](=O)[O-])c3)n2C)cc1`, the IC50 in the series “cells” is 21.8 µM (active).
On to `C=CCN1C[C@H](C)N([C@@H](c2ccccc2)c2ccc(C(=O)N(CC)CC)cc2)C[C@H]1C`, for which the AC50 at Cytochrome P450 1A2 was 31.6 µM (inconclusive); on Cytochrome P450 2C9, 31.6 µM (inconclusive); at Cytochrome P450 3A4, 2.51 µM (inconclusive); on Cytochrome P450 2C19 (read-out: AC50), 0.0631 µM (inconclusive).

These data come from ChEMBL document CHEMBL1201862, “PubChem BioAssay data set” (2004).
